Source: ChEMBL document CHEMBL3132800, “Identification of novel inhibitors of p53MDM2 interaction facilitated by pharmacophore-based virtual screening combining molecular docking strategy” (Medchemcomm, 2013)

Columns and labels:
SJSA-1 = experiment: Cytotoxicity against human SJSA1 cells after 72 hrs by SRB assay; type: functional, cell-based; details: SJSA-1, 72 h
SW-620 = experiment: Cytotoxicity against human SW620 cells after 72 hrs by SRB assay; type: functional, cell-based; details: SW-620, 72 h
HCT-116 [1] = experiment: Cytotoxicity against human HCT116 cells after 72 hrs by SRB assay; type: functional, cell-based; details: HCT-116, 72 h
[2] = molecular target: Tumour suppressor p53/oncoprotein Mdm2 (Homo sapiens, UniProt Q00987); experiment: Inhibition of p53-MDM2 (1 to 118 residues) interaction (unknown origin) expressed in Escherichia coli BL-21 (DE3) assessed as inhibition of MDM2 binding by fluorescence polarization competitive binding assay
HCT-116 [3] = experiment: Cytotoxicity against human HCT116 cells after 72 hrs by SRB assay relative to Nutlin-3; type: functional
PC-3 = experiment: Cytotoxicity against human PC3 cells after 72 hrs by SRB assay; type: functional, cell-based; details: PC-3, 72 h
A549 = experiment: Cytotoxicity against human A549 cells after 72 hrs by SRB assay; type: functional, cell-based; details: A549, 72 h

Sequence of Tumour suppressor p53/oncoprotein Mdm2 (P04637 whole entry, the tested form may be a part): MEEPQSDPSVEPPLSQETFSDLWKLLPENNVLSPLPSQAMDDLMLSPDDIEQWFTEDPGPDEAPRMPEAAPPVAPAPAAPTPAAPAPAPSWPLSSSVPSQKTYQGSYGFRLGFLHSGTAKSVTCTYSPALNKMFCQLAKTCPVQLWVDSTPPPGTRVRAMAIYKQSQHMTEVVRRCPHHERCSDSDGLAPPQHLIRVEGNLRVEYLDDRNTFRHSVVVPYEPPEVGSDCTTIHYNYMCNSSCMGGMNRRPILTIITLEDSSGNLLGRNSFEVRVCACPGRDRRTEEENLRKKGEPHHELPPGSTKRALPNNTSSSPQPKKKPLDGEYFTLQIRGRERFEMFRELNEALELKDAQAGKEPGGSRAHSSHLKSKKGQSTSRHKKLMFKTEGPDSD
Sequence of Tumour suppressor p53/oncoprotein Mdm2 (Q00987 whole entry, the tested form may be a part): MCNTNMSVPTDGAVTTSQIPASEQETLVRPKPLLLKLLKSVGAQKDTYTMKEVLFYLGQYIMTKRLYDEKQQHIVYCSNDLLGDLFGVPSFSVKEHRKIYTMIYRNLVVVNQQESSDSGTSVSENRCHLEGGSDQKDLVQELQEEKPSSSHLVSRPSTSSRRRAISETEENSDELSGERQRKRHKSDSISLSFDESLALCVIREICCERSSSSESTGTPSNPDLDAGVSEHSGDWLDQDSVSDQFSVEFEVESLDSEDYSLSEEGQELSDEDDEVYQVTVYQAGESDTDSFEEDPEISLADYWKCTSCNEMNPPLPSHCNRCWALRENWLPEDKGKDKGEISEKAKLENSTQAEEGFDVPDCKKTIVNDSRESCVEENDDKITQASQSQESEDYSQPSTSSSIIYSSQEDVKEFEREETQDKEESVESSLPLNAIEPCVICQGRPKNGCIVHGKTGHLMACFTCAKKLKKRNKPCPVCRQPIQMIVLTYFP

In the case of `Nc1sc(-c2ccc(Cl)cc2)c(-c2ccc(Cl)cc2)c1C(=O)Nc1ccccc1`, the IC50 (SJSA-1) is reported as over 500 µM, the IC50 (SW-620) is reported as 39.7 µM and the IC50 (HCT-116 [1]) is reported as 14.5 µM. The IC50 [2] was over 50 µM.
For `COC(=O)c1c(N)sc(-c2ccc(Cl)cc2)c1-c1ccc(Cl)cc1`, the “Ratio IC50” value (HCT-116 [3]) was 1.3, the IC50 (SJSA-1) was 40.9 µM and the IC50 (SW-620) was 3.23 µM. It also gave an IC50 (HCT-116 [1]) of 1.66 µM and an IC50 [2] of 4.23 µM.
In the case of `Nc1sc(-c2ccc(Cl)cc2)c(-c2ccc(Cl)cc2)c1C(=O)NC1CC1`, the “Ratio IC50” value (HCT-116 [3]) is reported as 1.3, the IC50 (SJSA-1) is reported as 31.9 µM and the IC50 (SW-620) is reported as 1.74 µM. For the same compound, the IC50 (HCT-116 [1]) was 0.24 µM and the IC50 [2] was 2.08 µM.
`Nc1sc(-c2ccc(Cl)cc2)c(-c2ccc(Cl)cc2)c1C(=O)NC1CCCCC1` was tested, and the “Ratio IC50” value (HCT-116 [3]) was 1.3, the IC50 (SJSA-1) was 102 µM and the IC50 (SW-620) was 3.07 µM. It also gave an IC50 (HCT-116 [1]) of 0.59 µM and an IC50 [2] of 0.9 µM.
`Nc1sc(-c2ccc(Cl)cc2)c(-c2ccc(Cl)cc2)c1C(=O)N1CCCC1` was tested, and the “Ratio IC50” value (HCT-116 [3]) was 1.3, the IC50 (SJSA-1) was 17.6 µM and the IC50 (SW-620) was 3.87 µM. For the same compound, the IC50 (HCT-116 [1]) was 3.63 µM and the IC50 [2] was 2.84 µM.
Compound `COc1ccc(C2=NC(c3ccc(Cl)cc3)C(c3ccc(Cl)cc3)N2C(=O)N2CCNC(=O)C2)c(OC(C)C)c1` (racemic) has an IC50 (SJSA-1) of 1.81 µM, an IC50 (SW-620) of 0.38 µM and an IC50 (PC-3) of 6.37 µM. For the same compound, the IC50 (HCT-116 [1]) was 4.63 µM and the IC50 (A549) was 0.41 µM.
